From patent US10597388B2, “Pyridazinone herbicides” (FMC CORPORATION, priority 2014, dated 2020)

Assays:
Assay type in all cases: in vivo
[1] = test system: ducksalad (Heteranthera limosa); test: Test B flooded paddy test; settings: 250 g ai/ha, Flood; visual rating on scale of 0 to 100 where 0 is no effect and 100 is complete control; 13 to 15 d after treatment
In short: (§1)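 Plants at the 2-leaf stage were flooded to 3 cm above soil, and test compounds were applied directly into the paddy water, which was held at that depth throughout. After 13 to 15 d in a greenhouse, injury was rated visually against untreated controls on a 0–100 scale (0 no effect, 100 complete control).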

[2] = test system: sedge, umbrella (small-flower umbrella sedge, Cyperus difformis); test: Test B flooded paddy test; settings: 250 g ai/ha, Flood; visual rating on scale of 0 to 100 where 0 is no effect and 100 is complete control; 13 to 15 d after treatment
In short: as §1

rice (Oryza sativa) = test: Test B flooded paddy test; settings: 250 g ai/ha, Flood; visual rating on scale of 0 to 100 where 0 is no effect and 100 is complete control; 13 to 15 d after treatment
In short: as §1

[3] = test system: barnyardgrass (Echinochloa crus-galli); test: Test B flooded paddy test; settings: 250 g ai/ha, Flood; visual rating on scale of 0 to 100 where 0 is no effect and 100 is complete control; 13 to 15 d after treatment
In short: as §1

[4] = test system: blackgrass (Alopecurus myosuroides); test: Test A greenhouse herbicide test, postemergence; settings: for Blackgrass plant response rating: 1000 g ai/ha, 0 is no effect, 100 is complete control
In short: (§2)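 Plants grown in loam soil/sand blend pots were treated postemergence at 2 to 10 cm height, one- to two-leaf stage, with formulated test chemicals. After approximately 10 d in a greenhouse, injury was rated visually against untreated controls on a 0 to 100 scale (0 no effect, 100 complete control).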

[5] = test system: galium (catchweed bedstraw, Galium aparine); test: Test A greenhouse herbicide test, postemergence; settings: for Galium plant response rating: 1000 g ai/ha, 0 is no effect, 100 is complete control
In short: as §2

corn (Zea mays) = test: Test A greenhouse herbicide test, pre- and postemergence; settings: Postemergence; for Corn plant response rating: 1000 g ai/ha, 0 is no effect, 100 is complete control
In short: (§3)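 Seeds sown in loam–sand blend got a preemergence directed soil spray of compound in non-phytotoxic solvent with surfactant. Postemergence treatment was given at 2–10 cm, one- to two-leaf stage. After ~10 d in greenhouse, injury was rated visually vs untreated controls, 0 (no effect) to 100 (complete control).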

kochia (Kochia scoparia) = test: as above; settings: for Kochia plant response rating: 0 is no effect, 100 is complete control
In short: as §3

[6] = test system: ragweed (common ragweed, Ambrosia elatior); test: as above; settings: for Ragweed plant response rating: 0 is no effect, 100 is complete control
In short: as §3

[7] = test system: foxtail, giant (giant foxtail, Setaria faberii); test: as above; settings: for Foxtail, Giant plant response rating: 0 is no effect, 100 is complete control
In short: as §3

[8] = test system: wheat (Triticum aestivum); test: as above; settings: Postemergence; for Wheat plant response rating: 1000 g ai/ha, 0 is no effect, 100 is complete control
In short: as §3

[9] = test system: ryegrass, Italian (Italian ryegrass, Lolium multiflorum); test: as above; settings: for Ryegrass, Italian plant response rating: 0 is no effect, 100 is complete control
In short: as §3

[10] = test system: barnyardgrass (Echinochloa crus-galli); test: as above; settings: for Barnyardgrass plant response rating: 0 is no effect, 100 is complete control
In short: as §3

[11] = test system: pigweed (Amaranthus retroflexus); test: as above; settings: for Pigweed plant response rating: 0 is no effect, 100 is complete control
In short: as §3

[12] = 125 g ai/ha, 0 to 100 scale, 0 no effect, 100 complete control
[13] = 500 g ai/ha, visual rating after approx. 10 d, 0 to 100 scale (0 no effect, 100 complete control)
[14] = Postemergence, 125 g ai/ha, 0 to 100 scale, 0 no effect, 100 complete control
[15] = Postemergence, 500 g ai/ha, visual rating after approx. 10 d, 0 to 100 scale (0 no effect, 100 complete control)
[16] = Preemergence, 125 g ai/ha, visual injury rating, 0 to 100 scale (0 no effect, 100 complete control), approx. 10 d
[17] = Preemergence, 500 g ai/ha, 0 to 100 scale where 0 is no effect and 100 is complete control
[18] = Postemergence, 1000 g ai/ha, 0 to 100 scale
[19] = Preemergence, 1000 g ai/ha, 0 to 100 scale, 0 no effect, 100 complete control

SMILES: Cc1nn(Cc2ccccc2)c(=O)c(-c2cccc3ccccc23)c1O [Compound 168]
- Plant response rating, Ducksalad [1]: 40
- Plant response rating, Sedge, Umbrella [2]: 0
- Plant response rating, Rice (rice (Oryza sativa)): 0
- Plant response rating, Barnyardgrass [3]: 0
- Plant response rating, Blackgrass [4, 12]: 20
- Plant response rating, Blackgrass [4, 13]: 30
- Plant response rating, Galium [5, 12]: 0
- Plant response rating, Galium [5, 13]: 30
- Plant response rating, Corn (corn (Zea mays); [12]): 0
- Plant response rating, Corn (corn (Zea mays); [13]): 20
- Plant response rating, Kochia (kochia (Kochia scoparia); [14]): 20
- Plant response rating, Kochia (kochia (Kochia scoparia); [15]): 20
- Plant response rating, Kochia (kochia (Kochia scoparia); [16]): 0
- Plant response rating, Kochia (kochia (Kochia scoparia); [17]): 0
- Plant response rating, Ragweed [6, 14]: 0
- Plant response rating, Ragweed [6, 15]: 0
- Plant response rating, Ragweed [6, 16]: 0
- Plant response rating, Ragweed [6, 17]: 0
- Plant response rating, Foxtail, Giant [7, 14]: 30
- Plant response rating, Foxtail, Giant [7, 15]: 40
- Plant response rating, Foxtail, Giant [7, 16]: 0
- Plant response rating, Foxtail, Giant [7, 17]: 40
- Plant response rating, Wheat [8, 12]: 0
- Plant response rating, Wheat [8, 13]: 20
- Plant response rating, Ryegrass, Italian [9, 14]: 60
- Plant response rating, Ryegrass, Italian [9, 15]: 60
- Plant response rating, Ryegrass, Italian [9, 16]: 0
- Plant response rating, Ryegrass, Italian [9, 17]: 40
- Plant response rating, Barnyardgrass [10, 14]: 0
- Plant response rating, Barnyardgrass [10, 15]: 40
- Plant response rating, Barnyardgrass [10, 16]: 0
- Plant response rating, Barnyardgrass [10, 17]: 20
- Plant response rating, Pigweed [11, 14]: 0
- Plant response rating, Pigweed [11, 15]: 40
- Plant response rating, Pigweed [11, 16]: 0
- Plant response rating, Pigweed [11, 17]: 0

SMILES: Cc1n[nH]c(=O)c(-c2cccc3ccccc23)c1OCC(F)F [Compound 173]
- Plant response rating, Ducksalad [1]: 0
- Plant response rating, Sedge, Umbrella [2]: 0
- Plant response rating, Rice (rice (Oryza sativa)): 0
- Plant response rating, Barnyardgrass [3]: 0
- Plant response rating, Blackgrass [4, 12]: 0
- Plant response rating, Blackgrass [4, 13]: 0
- Plant response rating, Galium [5, 12]: 0
- Plant response rating, Galium [5, 13]: 0
- Plant response rating, Corn (corn (Zea mays); [12]): 0
- Plant response rating, Corn (corn (Zea mays); [13]): 0
- Plant response rating, Kochia (kochia (Kochia scoparia); [14]): 0
- Plant response rating, Kochia (kochia (Kochia scoparia); [15]): 0
- Plant response rating, Kochia (kochia (Kochia scoparia); [16]): 0
- Plant response rating, Kochia (kochia (Kochia scoparia); [17]): 0
- Plant response rating, Ragweed [6, 14]: 0
- Plant response rating, Ragweed [6, 15]: 0
- Plant response rating, Ragweed [6, 16]: 0
- Plant response rating, Ragweed [6, 17]: 0
- Plant response rating, Foxtail, Giant [7, 14]: 0
- Plant response rating, Foxtail, Giant [7, 15]: 0
- Plant response rating, Foxtail, Giant [7, 16]: 0
- Plant response rating, Foxtail, Giant [7, 17]: 0
- Plant response rating, Wheat [8, 12]: 0
- Plant response rating, Wheat [8, 13]: 0
- Plant response rating, Ryegrass, Italian [9, 14]: 0
- Plant response rating, Ryegrass, Italian [9, 15]: 0
- Plant response rating, Ryegrass, Italian [9, 16]: 0
- Plant response rating, Ryegrass, Italian [9, 17]: 0
- Plant response rating, Barnyardgrass [10, 14]: 0
- Plant response rating, Barnyardgrass [10, 15]: 0
- Plant response rating, Barnyardgrass [10, 16]: 0
- Plant response rating, Barnyardgrass [10, 17]: 0
- Plant response rating, Pigweed [11, 14]: 0
- Plant response rating, Pigweed [11, 15]: 0
- Plant response rating, Pigweed [11, 16]: 0
- Plant response rating, Pigweed [11, 17]: 0

SMILES: Cc1cc(C)c2sc(C)c(-c3c(OC(=O)N4CCOCC4)c(C)nn(C)c3=O)c2c1 [Compound 174]
- Plant response rating, Ducksalad [1]: 0
- Plant response rating, Sedge, Umbrella [2]: 0
- Plant response rating, Rice (rice (Oryza sativa)): 0
- Plant response rating, Barnyardgrass [3]: 0
- Plant response rating, Blackgrass [4, 12]: 0
- Plant response rating, Blackgrass [4, 13]: 0
- Plant response rating, Galium [5, 12]: 30
- Plant response rating, Galium [5, 13]: 80
- Plant response rating, Corn (corn (Zea mays); [12]): 0
- Plant response rating, Corn (corn (Zea mays); [13]): 0
- Plant response rating, Kochia (kochia (Kochia scoparia); [14]): 0
- Plant response rating, Kochia (kochia (Kochia scoparia); [15]): 0
- Plant response rating, Kochia (kochia (Kochia scoparia); [16]): 0
- Plant response rating, Kochia (kochia (Kochia scoparia); [17]): 0
- Plant response rating, Ragweed [6, 14]: 20
- Plant response rating, Ragweed [6, 15]: 20
- Plant response rating, Ragweed [6, 16]: 0
- Plant response rating, Ragweed [6, 17]: 0
- Plant response rating, Foxtail, Giant [7, 14]: 0
- Plant response rating, Foxtail, Giant [7, 15]: 10
- Plant response rating, Foxtail, Giant [7, 16]: 0
- Plant response rating, Foxtail, Giant [7, 17]: 10
- Plant response rating, Wheat [8, 12]: 0
- Plant response rating, Wheat [8, 13]: 0
- Plant response rating, Ryegrass, Italian [9, 14]: 10
- Plant response rating, Ryegrass, Italian [9, 15]: 40
- Plant response rating, Ryegrass, Italian [9, 16]: 0
- Plant response rating, Ryegrass, Italian [9, 17]: 0
- Plant response rating, Barnyardgrass [10, 14]: 0
- Plant response rating, Barnyardgrass [10, 15]: 10
- Plant response rating, Barnyardgrass [10, 16]: 0
- Plant response rating, Barnyardgrass [10, 17]: 0
- Plant response rating, Pigweed [11, 14]: 40
- Plant response rating, Pigweed [11, 15]: 60
- Plant response rating, Pigweed [11, 16]: 0
- Plant response rating, Pigweed [11, 17]: 20

SMILES: C#CCOc1c(C)nn(C)c(=O)c1-c1cccc2ccccc12 [Compound 179]
- Plant response rating, Ducksalad [1]: 0
- Plant response rating, Sedge, Umbrella [2]: 0
- Plant response rating, Rice (rice (Oryza sativa)): 0
- Plant response rating, Barnyardgrass [3]: 0
- Blackgrass plant response rating ([4]; 0 to 100 scale): 40
- Galium plant response rating ([5]; 0 to 100 scale): 90
- Corn plant response rating (corn (Zea mays); 0 to 100 scale): 10
- Kochia plant response rating (kochia (Kochia scoparia); [18]): 10
- Plant response rating, Kochia (kochia (Kochia scoparia); [19]): 30
- Ragweed plant response rating [6, 18]: 40
- Plant response rating, Ragweed [6, 19]: 50
- Foxtail, Giant plant response rating [7, 18]: 10
- Plant response rating, Foxtail, Giant [7, 19]: 30
- Wheat plant response rating ([8]; 0 to 100 scale): 0
- Ryegrass, Italian plant response rating [9, 18]: 70
- Plant response rating, Ryegrass, Italian [9, 19]: 30
- Barnyardgrass plant response rating [10, 18]: 10
- Plant response rating, Barnyardgrass [10, 19]: 0
- Pigweed plant response rating [11, 18]: 0
- Plant response rating, Pigweed [11, 19]: 80

SMILES: Cc1nn(C)c(=O)c(-c2cccc3ccccc23)c1OCC(=O)C1CC1 [Compound 181]
- Plant response rating, Ducksalad [1]: 0
- Plant response rating, Sedge, Umbrella [2]: 0
- Plant response rating, Rice (rice (Oryza sativa)): 0
- Plant response rating, Barnyardgrass [3]: 0
- Blackgrass plant response rating ([4]; 0 to 100 scale): 20
- Galium plant response rating ([5]; 0 to 100 scale): 80
- Corn plant response rating (corn (Zea mays); 0 to 100 scale): 0
- Kochia plant response rating (kochia (Kochia scoparia); [18]): 0
- Plant response rating, Kochia (kochia (Kochia scoparia); [19]): 10
- Ragweed plant response rating [6, 18]: 30
- Plant response rating, Ragweed [6, 19]: 10
- Foxtail, Giant plant response rating [7, 18]: 0
- Plant response rating, Foxtail, Giant [7, 19]: 0
- Wheat plant response rating ([8]; 0 to 100 scale): 0
- Ryegrass, Italian plant response rating [9, 18]: 80
- Plant response rating, Ryegrass, Italian [9, 19]: 60
- Barnyardgrass plant response rating [10, 18]: 0
- Plant response rating, Barnyardgrass [10, 19]: 0
- Pigweed plant response rating [11, 18]: 30
- Plant response rating, Pigweed [11, 19]: 30
